Test results from US5604263A, “Treating osteoporosis with humulones” (Hoechst Japan Limited, priority 1994, dated 1997).
pIC50: −log10 of the molar value. Read-outs that look alike come from different tables or passages of the source.

Tested on: bone resorption (pit formation) by bone cell containing osteoclasts
Test: Pit formation assay (bone resorption inhibiting activity; absorption cavities on ivory pieces)
Type: cell-based, ICR mice
Conditions: for No. of pits (Mean ± SD): control 328.0 ± 51.0; for pIC50 / inhibition at 10 µM / inhibition at 1 µM / inhibition at 0.1 µM / inhibition at 0.01 µM / inhibition at 0.001 µM / inhibition at 0.0001 µM / inhibition at 10 pM: Mus musculus, Osteoclast; for pIC50: read-out: 50% inhibitory (ID50) value
Method: From 10 to 11-day old ICR mice (purchased from Charles River Inc.) were extracted femur and shank, which were then chopped using scissors in a-MEM medium (purchased from Flow Laboratories Inc.) containing 5% FBS (purchased from Irving Scientific Inc.), 100 U/ml penicillin and 100 μg/ml streptomycin. And further, the resulting supernatant was recovered by pipetting, washed with the medium and then suspended in 5% FBS, a-MEM medium to form bone cell containing osteoclasts. The bone cell suspension thus prepared was incubated in the medium containing rat parathyroid hormone for one week. After completion of the incubation, the cells were recovered using 0.05% trypsin EDTA-PBS and applied to pit formation assay.
An ivory piece was cut to a thickness of 150 μm using a precision low speed cutter (purchased from Buehler GmbH) and then round pieces with a diameter of 6 mm were cut out using a one-hole punch. These ivory pieces were immersed in 70% ethanol, subjected to sonication twice for each 5 minutes and then washed three times with sterile PBS and twice with the medium. These ivory pieces were placed in a 96-well culture plate (purchased from Falcon Inc.) and 100 µl of the medium containing medicaments at various concentrations was added. Then, 100 μl of the media containing the above prepared bone cells 1×10^5 was added to each well. Incubation was carried out at 37° C. in a 10% CO2 incubator for 2 days. After completion of the incubation, the cell over the ivory piece was removed, absorption cavities were stained with Coomassie Brilliant Blue and the number of the absorption cavities thus formed was counted under microscope.
Organosynthetic humulone was prepared according to Obara, H. et al., Bull. Chem. Soc. Jpn., vol.62, p.3034-3035 (1989). Bone resorption inhibiting activities of the organosynthetic humulone thus obtained and α acids obtained in example 1 were determined by means of the assay as described in (2) of example 2.
Bone resorption inhibiting activities of the native humulone thus obtained in Example 4 and the organosynthetic humulone thus obtained in Example 3 were determined by means of the assay as described in (2) of example 2.

For `CC(C)=CCC1=C(O)C(C(=O)CC(C)C)=C(O)C(O)(CC=C(C)C)C1=O` (single isomer, unassigned) [Native humulone, humulone], the “No. of pits (Mean ± SD)” value (Example 5, dose 10^-5 M) was 0.3 ± 0.5, the “No. of pits (Mean ± SD)” value (Example 5, dose 10^-6 M) was 6.5 ± 3.8 and the “No. of pits (Mean ± SD)” value (Example 5, dose 10^-7 M) was 34.5 ± 7.4. For the same compound, the “No. of pits (Mean ± SD)” value (Example 5, dose 10^-8 M) was 128.5 ± 23.1, the “No. of pits (Mean ± SD)” value (Example 5, dose 10^-9 M) was 251.5 ± 135.4 and the “No. of pits (Mean ± SD)” value (Example 5, dose 10^-10 M) was 274.3 ± 54.9. For the same compound, the “No. of pits (Mean ± SD)” value (Example 5, dose 10^-11 M) was 274.3 ± 91.6, the pIC50 (Example 5) was 8.23 and the inhibition at 10 µM (Example 5, dose 10^-5 M) was 99.9%. It also gave an inhibition at 1 µM (Example 5, dose 10^-6 M) of 98%, an inhibition at 0.1 µM (Example 5, dose 10^-7 M) of 89.5% and an inhibition at 0.01 µM (Example 5, dose 10^-8 M) of 60.8%. For the same compound, the inhibition at 0.001 µM (Example 5, dose 10^-9 M) was 23.3%, the inhibition at 0.0001 µM (Example 5, dose 10^-10 M) was 16.4% and the inhibition at 10 pM (Example 5, dose 10^-11 M) was 16.4%.
With `CC(C)=CCC1C(=O)C(C(=O)CC(C)C)=C(O)C(O)(CC=C(C)C)C1=O` (stereo not shown) [Organosynthetic humulone, humulone] the “No. of pits (Mean ± SD)” value (Example 5, dose 10^-5 M) was 6.8 ± 5.3, the “No. of pits (Mean ± SD)” value (Example 5, dose 10^-6 M) was 33.7 ± 20.2 and the “No. of pits (Mean ± SD)” value (Example 5, dose 10^-7 M) was 70.7 ± 9.3. For the same compound, the “No. of pits (Mean ± SD)” value (Example 5, dose 10^-8 M) was 217.0 ± 89.1, the “No. of pits (Mean ± SD)” value (Example 5, dose 10^-9 M) was 221.8 ± 88.3 and the “No. of pits (Mean ± SD)” value (Example 5, dose 10^-10 M) was 221.3 ± 54.1. The “No. of pits (Mean ± SD)” value (Example 5, dose 10^-11 M) was 281.3 ± 38.1, the pIC50 (Example 3, organosynthetic humulone and α acids of example 1) was 6.89 and the pIC50 (Example 5) was 7.59. The inhibition at 10 µM (Example 5, dose 10^-5 M) was 97.9%, the inhibition at 1 µM (Example 5, dose 10^-6 M) was 89.7% and the inhibition at 0.1 µM (Example 5, dose 10^-7 M) was 78.4%. It also gave an inhibition at 0.01 µM (Example 5, dose 10^-8 M) of 33.8%, an inhibition at 0.001 µM (Example 5, dose 10^-9 M) of 32.4% and an inhibition at 0.0001 µM (Example 5, dose 10^-10 M) of 32.5%. The inhibition at 10 pM (Example 5, dose 10^-11 M) was 14.2%.
